Assay results reported in US20240368133A1, “Compounds for the Treatment of Pain, in Particular, Neuropathic Pain, and/or Other Diseases or Disorders that are Associated with AT2R and/or AT2R Mediated Signaling” (Confo Therapeutics N.V., priority 2021, published 2024).

Assays:
Assay type in all cases: in vitro ADME
[1] = Liver microsomal stability, rat; conditions: male, pH 7.4, liver microsomes
Description: Mouse hepatic microsomes were isolated from pooled (50), perfused livers of male Balb/c mice. Rat hepatic microsomes were isolated from pooled (15), perfused livers of male Wistar rats. Isolation was performed according to the standard protocol (Hill, J. R. in Current Protocols in Pharmacology 7.8.1-7.8.11, Wiley Interscience, 2003). The batches of microsomes were tested for quality control using Imipramine, Propranolol and Verapamil as reference compounds.
Microsomal incubations were carried out in 96-well plates in 5 aliquots of 40 μL each (one for each time point). Liver microsomal incubation medium contained PBS (100 mM, pH 7.4), MgCl2 (3.3 mM), NADPH (3 mM), glucose-6-phosphate (5.3 mM), glucose-6-phosphate dehydrogenase (0.67 units/ml) with 0.42 mg of liver microsomal protein per ml. Control incubations were performed replacing the NADPH-cofactor system with PBS. Test compound (2 μM, final solvent concentration 1.6%) was incubated with microsomes at 37° C., shaking at 100 rpm. Incubations were performed in duplicates. Five time points over 40 minutes have been analyzed. The reactions were stopped by adding 12 volumes of 90% acetonitrile-water to incubation aliquots, followed by protein sedimentation by centrifuging at 5500 rpm for 3 minutes. […]. Supernatants were analyzed using the HPLC system coupled with tandem mass spectrometer (API3000 PE Sciex). Acquisition and analysis of the data were performed using Analyst 1.5.2 software (PE Sciex). The elimination constant (kel), half-life (t½) and intrinsic clearance (Clint) were determined in plot of […] versus time, using linear regression analysis:
Mouse hepatic microsomes were isolated from pooled, perfused livers of male CD1 mice. Rat hepatic microsomes were isolated from pooled, perfused livers of male Sprague Dawley rats. Dog hepatic microsomes were isolated from pooled, perfused livers of male Beagle dogs. The batches of microsomes were tested for quality control using Testosterone, Propranolol and Caffeine as reference compounds.
A 10 mM stock solution of compound in DMSO is diluted three-fold in DMSO. This pre-diluted compound solution is then further diluted to 2 μM in a 50 mM phosphate buffer (PBS, pH 7.4) and pre-warmed at 37° C. This compound dilution is mixed F2 with microsomal/cofactor mix at 37° C. under shaking at 300 rpm. Final reaction conditions are: 100 μL incubation volume, 1 μM of test compound (in duplicate), <0.1% DMSO, 0.5 mg/mL microsomes, 0.6 U/mL Glucose-6-phosphate-dehydrogenase (G6PDH, Roche, 10127671001), 3.3 mM MgCl2 (Sigma, M2670), 3.3 mM glucose-6-phosphate (Sigma, G-7879) and 1.3 mM NADP+ (Sigma, N-0505).
After 60 min of incubation at 300 rpm and 37° C., the reaction was stopped with 3 volumes of STOP solution (acetonitrile/MeOH 2/1 with diclofenac as internal standard). For the time point zero, 3 volumes of STOP solution were added to the compound dilution before the microsome mix was added. Six time points over 60 minutes have been analyzed. The samples of all time points were centrifuged, filtered and the supernatant analyzed by LCMS/MS (systems API4000).
The instrument responses (peak areas/IS peak area) were referenced to the zero time-point samples (considered as 100%) in order to determine the percentage of compound remaining.
Testosterone (1 μM) and Propranolol and Caffeine (1 μM) were used as reference compounds, being unstable and stable compounds respectively. If the microsomal stability values for these controls are not in the range determined by the historical data, the assay is not validated. The solubility of the compound in the final test concentration in 50 mM buffer pH 7.4 is checked by microscope to indicate whether precipitation is observed or not. If a precipitate is observed, no data of microsomal stability is generated.

CYP2C9 = CYP2C9 (Homo sapiens (Human), UniProt P11712); assay: CYP inhibition, CYP2C9; conditions: test compound at 10 μM, read-out: % Inhibition (PIN) 2C9
CYP2C9, sequence (P11712 whole entry): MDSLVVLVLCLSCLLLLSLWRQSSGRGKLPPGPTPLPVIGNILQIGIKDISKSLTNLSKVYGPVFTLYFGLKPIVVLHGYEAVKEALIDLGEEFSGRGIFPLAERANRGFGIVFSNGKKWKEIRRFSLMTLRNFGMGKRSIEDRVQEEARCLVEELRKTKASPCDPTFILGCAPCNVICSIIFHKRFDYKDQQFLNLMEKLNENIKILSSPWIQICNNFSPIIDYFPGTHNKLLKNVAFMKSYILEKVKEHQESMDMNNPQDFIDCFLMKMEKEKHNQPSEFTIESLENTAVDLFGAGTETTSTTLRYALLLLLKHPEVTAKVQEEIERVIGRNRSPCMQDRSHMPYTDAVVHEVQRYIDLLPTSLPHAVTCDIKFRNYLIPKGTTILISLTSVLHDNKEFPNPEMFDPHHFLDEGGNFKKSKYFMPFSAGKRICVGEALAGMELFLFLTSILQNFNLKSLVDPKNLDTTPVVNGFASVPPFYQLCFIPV
Description: (§1) The aim of this assay is to determine the inhibitory potential of a test compound. A major concern for drug-drug-interaction is cytochrome P450 inhibition. Reversible CYP inhibition was determined in human liver microsomes using specific probe substrates for human cytochrome P450 isoenzymes CYP1A2, 2C9, 2C19, 2D6 and 3A4.
The potential for CYP450 inhibition was assessed by performing in vitro inhibition studies using fluorogenic CYP450 substrates with the corresponding CYP450 enzymes and NADPH regeneration system (Vivid CYP450 Screening Kits) with some minor changes to the manufacturer's protocols. The fluorescent signal produced from reaction is directly proportional to the cytochrome P450 activity. In the cases when tested compounds interfere with the CYP450 enzyme-substrate reaction, the fluorescent signal decreases. […] After 10 minutes pre-incubation, the enzymatic reaction was initiated by the addition of a mix of NADPH and the appropriate CYP450 substrates. The plate was incubated for the desired reaction time (25 min for CYP1A2, CYP2C9, CYP2D6, and CYP3A4, 60 min for CYP2C19) after which Stop Reagent was added and fluorescence measured using SpectraMax Paradigm Multi-Mode Microplate Reader. All test points were performed in quadruplicates at concentration 10 μM (1% DMSO).
A 10 mM stock solution of test compound is prepared in methanol. This stock is further serially diluted 1:3 in methanol and then added to mixture containing 50 mM potassium phosphate buffer pH7.4, human liver microsomes (BD Gentest) and probe substrate. […]
(§2) After incubation at 37° C., the reaction (aliquot of 50 μL) is terminated with 150 μL CH3CN:MeOH (2:1) solution with internal standard (warfarin for 2C9, diclofenac for all other tested isoforms). Samples are centrifuged and the supernatant fractions analyzed by LC-MS/MS.
(§3) The instrument responses (ratio of test compound and internal standard peak areas) are referenced to those for solvent controls (assumed as 100%) in order to determine the percentage reduction in probe metabolism. Percent of control activity vs. concentration plots are generated and fitted using GraphPad Prism software to generate IC50.

CYP2C19 = CYP2C19 (Homo sapiens (Human), UniProt P33261); assay: CYP inhibition, CYP2C19; conditions: test compound at 10 μM, read-out: % Inhibition (PIN) 2C19
CYP2C19, sequence (P33261 whole entry): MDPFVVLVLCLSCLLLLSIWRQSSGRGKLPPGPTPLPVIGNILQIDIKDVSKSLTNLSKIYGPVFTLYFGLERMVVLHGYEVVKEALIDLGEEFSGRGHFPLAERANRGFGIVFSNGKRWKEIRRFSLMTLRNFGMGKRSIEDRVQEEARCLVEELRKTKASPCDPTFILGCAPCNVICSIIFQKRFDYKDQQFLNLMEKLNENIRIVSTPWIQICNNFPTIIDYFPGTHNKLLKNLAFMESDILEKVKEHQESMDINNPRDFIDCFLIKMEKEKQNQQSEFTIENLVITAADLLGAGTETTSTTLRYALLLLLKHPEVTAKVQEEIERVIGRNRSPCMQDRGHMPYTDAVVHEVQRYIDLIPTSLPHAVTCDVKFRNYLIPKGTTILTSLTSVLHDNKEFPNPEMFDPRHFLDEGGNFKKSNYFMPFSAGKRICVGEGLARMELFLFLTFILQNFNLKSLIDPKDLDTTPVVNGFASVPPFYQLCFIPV
Description: as §1, with “3A4. […]” for “3A4.”
A 10 mM stock solution of test compound is prepared in methanol. This stock is further serially diluted 1:3 in methanol and then added to mixture containing 50 mM potassium phosphate buffer pH7.4, human liver microsomes (BD Gentest) and probe substrate. After pre-warming 5 min at 37° C., the reaction is started by adding co-factor mix ([…] glucose-6-phosphate, 1.7 mg/mL NADP, 6 U/mL of glucose-6-phosphate dehydrogenase), resulting in a final concentration of test compound at 10 μM (2% MeOH).
Final concentrations of co-factor mix components are as follows: 1.56 mg/mL glucose-6-phosphate, 0.34 mg/mL NADP, 1.2 U/mL of glucose-6-phosphate dehydrogenase.
as §2, §3

microsomal CLint [1] [µL/min/mg] | inhibition at 10 µM (CYP2C9) [%] | inhibition at 10 µM (CYP2C19) [%] | SMILES
< 17.3 | 51 | 39 | CC(C)Cc1cc(F)c(-c2nn[nH]n2)c(N2CCN(Cc3ccccn3)[C@@H](C)C2)c1 [Compound A-217, (2S)-4-[3-fluoro-5-isobutyl-2-(2H-tetrazol-5-yl)phenyl]-2-methyl-1-(2-pyridylmethyl)piperazine]
24.1 | 43 | 25 | Cc1cnc(CN2CCN(c3cc(CC(C)C)cc(F)c3-c3nn[nH]n3)C[C@@H]2C)s1 [Compound A-223, 2-[[(2S)-4-[3-fluoro-5-isobutyl-2-(2H-tetrazol-5-yl)phenyl]-2-methyl-piperazin-1-yl]methyl]-5-methyl-thiazole]
